Experimental data reported in US11045411B2, “Process for treating keratin materials using amide, acid or ester c-glycoside derivatives, and cosmetic composition containing same” (L'OREAL, priority 2015, dated 2021).
Several values for one entry are separate records, joined by “and”; a condition that tells them apart may be missing. Equal values may be shown once.

Experiments:
[1] = test system: normal human epidermal keratinocytes; assay: Synthesis of total glycosaminoglycans, [3H]-glucosamine incorporation in normal human epidermal keratinocytes; format: cell-based; settings: for % relative to control, glucosamine incorporation / Mean value, radioactive glucosamine incorporated: 72 hours; for incorporation of radioactive glucosamine: result in words
Protocol: The study is carried out by measuring the incorporation of radioactive glucosamine into the matrix neosynthesized by cultures of normal human epidermal keratinocytes. The incorporation of radioactive [^3H]-glucosamine indicates a specific neosynthesis of total glycosaminoglycans.
The test is carried out on a culture of normal human epidermal keratinocytes in a 96-well plate and cultured in culture medium for 24 hours:
Culture medium: Keratinocytes-SFM supplemented with 0.5 ng/ml epidermal growth factor (EGF), 25 μg/ml pituitary extract, 25 μg/ml gentamycin.
Culture conditions: 37° C.; 5% CO2
The medium was then replaced with culture medium containing or not containing (control) the compound (I) tested or the references 4-nitrophenyl-B-D-xylopyranoside (tested at 300 μM) and 4-methylumbelliferyl-B-D-xylopyranoside (tested at 54 μM) or the solvent control (DMSO at 0.1%), then the cells were incubated for 72 hours with addition of the [^3H]-glucosamine label for the final 24 hours of incubation.
The test was carried out with 3 assays for each compound tested, at the concentrations of 1, 10, 100 and 300 μM.
At the end of the incubation, the glycosaminoglycans were extracted from the cells with a chaotropic buffer. The level of radioactive glucosamine incorporated is measured at the end of the test by adsorption of the anionic molecules on Q-sepharose beads, followed by desorption of the molecules having low and medium anionicity with 6M urea plus 0.2 M NaCl. Once washed, the radioactivity incorporated into the very […] molecules remaining on the support is counted.
The results were evaluated relative to a control constituted of cells which had not been treated with the compound (I).
A positive control (TGFβ at 0.25 ng/ml) known to stimulate GAG synthesis was introduced into the test carried as a positive reference.

GLUT-1 = GLUT-1 expression in normal human keratinocytes by immuno labeling; format: cell-based; settings: for GLUT-1 expression vs 100% control: 48 hours, n=3; for expression of the GLUT-1 protein: result in words
Protocol: Normal human keratinocytes (NHKs) were seeded and cultured in culture medium for 24 hours and then in test medium for a further 24 hours. After incubation, the medium was replaced with test medium containing or not containing (control) the test compounds or the references, and then the cells were incubated for 48 hours. All the experimental conditions were performed in n=3. After incubation, the culture medium was removed and the cells were rinsed, fixed and permeabilized. GLUT-1 expression was determined by immuno labeling.

Row | Structure (SMILES) | % relative to control, glucosamine incorporation ([1]; 1 μM) | Mean value, radioactive glucosamine incorporated ([1]; 1 μM) | % relative to control, glucosamine incorporation ([1]; 10 μM) | Mean value, radioactive glucosamine incorporated ([1]; 10 μM) | % relative to control, glucosamine incorporation ([1]; 100 μM) | Mean value, radioactive glucosamine incorporated ([1]; 100 μM) | % relative to control, glucosamine incorporation ([1]; 300 μM) | Mean value, radioactive glucosamine incorporated ([1]; 300 μM) | incorporation of radioactive glucosamine ([1]; concentration of 300 μM) | GLUT-1 expression vs 100% control (GLUT-1; Reference 2 mM metformine) | incorporation of radioactive glucosamine ([1]; concentration of 1 μM) | incorporation of radioactive glucosamine ([1]; concentration of 10 μM) | GLUT-1 expression vs 100% control (GLUT-1; compound at 10 μM) | expression of the GLUT-1 protein (GLUT-1) | incorporation of radioactive glucosamine ([1]; concentration of 100 μM) | % relative to control, glucosamine incorporation ([1]; 54 μM) | Mean value, radioactive glucosamine incorporated ([1]; 54 μM)
1 | CNC(=O)C(O)C1O[C@@H](C)[C@H](O)[C@@H](O)[C@H]1O (stereo partly shown) [Compound 9] | 120% | 16162 cpm | 114% | 15439 cpm | 131% | 17655 cpm | 169% | 22845 cpm | stimulates the incorporation of radioactive glucosamine | – | – | – | – | – | – | – | –
2 | CN(C)C(=N)N=C(N)N [metformine, reference compound] | – | – | – | – | – | – | – | – | – | 252% (p < 0.01) and 296% (p < 0.001) | – | – | – | – | – | – | –
3 | CNC(=O)C(O)C1OC[C@@H](O)[C@H](O)[C@H]1O (stereo partly shown) [Compound 5] | 134% | 17792 cpm | 121% | 16133 cpm | 119% | 15835 cpm | 116% | 15495 cpm | – | – | stimulate the incorporation of radioactive glucosamine | – | – | – | – | – | –
4 | CCCNC(=O)C(O)C1O[C@H](CO)[C@@H](O)[C@H](O)[C@H]1O (stereo partly shown) [Compound 2] | 110% | 14638 cpm | 126% | 16779 cpm | 123% | 16435 cpm | 127% | 16929 cpm | – | – | – | stimulate the incorporation of radioactive glucosamine | – | – | – | – | –
5 | CNC(=O)C(O)C1O[C@H](CO)[C@@H](O)[C@H](O)[C@@H]1O (stereo partly shown) [Compound 13] | 119% | 16090 cpm | 129% | 17340 cpm | 134% | 18139 cpm | 139% | 18804 cpm | – | – | – | stimulate the incorporation of radioactive glucosamine | – | – | – | – | –
6 | CCCCCCCCCCCCCCNC(=O)C(O)C1O[C@H](CO)[C@@H](O)[C@H](O)[C@H]1O (stereo partly shown) [Compound 4] | – | – | – | – | – | – | – | – | – | – | – | – | 142% (p < 0.01) | very significantly stimulated | – | – | –
7 | O=[N+]([O-])c1ccc(O[C@@H]2OC[C@@H](O)[C@H](O)[C@H]2O)cc1 [4-nitrophenyl β-D-xylopyranoside, 4-nitrophenyl-B-D-xylopyranoside, reference compound] | – | – | – | – | – | – | 207% | 31280 cpm | – | – | – | – | – | – | – | – | –
8 | CNC(=O)C(O)C1O[C@H](CO)[C@@H](OC2O[C@H](CO)[C@H](O)[C@H](O)[C@H]2O)[C@H](O)[C@H]1O (stereo partly shown) [Compound 21] | 142% | 18416 cpm | 136% | 17611 cpm | 137% | 17796 cpm | 134% | 17429 cpm | stimulates the incorporation of radioactive glucosamine | – | stimulates the incorporation of radioactive glucosamine | stimulates the incorporation of radioactive glucosamine | – | – | – | – | –
9 | CNC(=O)C(O)C1O[C@H](CO)[C@@H](O)[C@H](O)[C@H]1O (stereo partly shown) [Compound 1] | 125% | 21591 cpm | 117% | 20216 cpm | 118% | 20451 cpm | 97% | 16850 cpm | – | – | stimulate the incorporation of radioactive glucosamine | – | 159% (p < 0.05) | very significantly stimulated | – | – | –
10 | CNC(=O)C(O)C1O[C@H](CO)[C@H](O)[C@H](O)[C@H]1O (stereo partly shown) [Compound 17] | 129% | 17387 cpm | 123% | 16614 cpm | 132% | 17861 cpm | 108% | 14498 cpm | – | – | stimulates the incorporation of radioactive glucosamine | stimulates the incorporation of radioactive glucosamine | – | – | stimulates the incorporation of radioactive glucosamine | – | –
11 | Cc1cc(=O)oc2cc(O[C@@H]3OC[C@@H](O)[C@H](O)[C@H]3O)ccc12 [4-methylumbelliferyl-β-D-xylopyranoside, 4-methylumbelliferyl-B-D-xylopyranoside, reference compound] | – | – | – | – | – | – | – | – | – | – | – | – | – | – | – | 213% | 32202 cpm
